Measurements reported in patent US8247211B2, “Glycopeptide antibiotics” (American Cyanamid Company, priority 2001, dated 2012).

Tests used:
Assay in all cases: In vitro antibacterial evaluation: minimum inhibitory concentration (MIC), broth dilution method
Format in all cases: cell-based
[1] = system: Enterococcus sp.
Outline: (§1)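 NCCLS M7-A2 broth dilution with Mueller-Hinton II, testing 64-0.06 μg/mL antibiotic against 5×10^5 CFU/mL inocula. Test strains include recent methicillin-, penicillin- or vancomycin-resistant clinical isolates. MIC is the lowest concentration preventing growth.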

[2] = system: Escherichia coli
Outline: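 An MIC is reported for each organism as the least concentration giving inhibition, using broth dilution over 64-0.06 μg/mL with a 5×10^5 CFU/mL inoculum.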

[3] = system: Staphylococcus sp.; conditions: broth dilution, 18 hours at 35° C.
Outline: as §1

[4] = system: Streptococcus sp.
Outline: as §1

[5] = broth dilution, inoculum 5×10^5 CFU/mL, 18 hours at 35° C.

COc1cc(C2OCC3OC(OC4C(CO)OC(Oc5ccc(CC6NC(=O)C(C(C)c7ccccc7)NC(=O)CNC(=O)C(CO)NC(=O)C(C(O)C7CNC(=N)N7C7OC(CO)C(O)C(O)C7O)NC(=O)C(C(O)C7CNC(=N)N7)NC6=O)cc5)C(O)C4O)C(O)C(O)C3O2)cc([N+](=O)[O-])c1O (stereo not drawn) [Example 169, Cyclo[glycyl-β-methylphenylalanyl-O-[4-O-[4,6-O-(4-hydroxy-3-methoxy-4-nitro-benzylidene)hexopyranosyl]hexopyranosyl]tyrosyl-3-(2-iminoimidazolidin-4-yl)seryl-3-(3-hexopyranosyl-2-iminoimidazolidin-4-yl)serylseryl]]
16 µg/mL: MIC Coagulase Negative Staphylococcus (GC 4549) ([3]; 5×10^5 CFU/mL) | MIC Streptococcus pyogenes (GC 4563) [4, 5] | MIC Streptococcus pyogenes (GC 4563) ([4]; strain GC 4563)
32 µg/mL: MIC Enterococcus faecium (GC 4557) [1, 5] | MIC Enterococcus faecium (GC 4557) ([1]; strain GC 4557) | MIC Coagulase Negative Staphylococcus (GC 4547) ([3]; 5×10^5 CFU/mL) | MIC Coagulase Negative Staphylococcus (GC 4548) ([3]; 5×10^5 CFU/mL) | MIC Staphylococcus aureus (ATCC 29213) ([3]; 5×10^5 CFU/mL) | MIC Staphylococcus aureus (GC 1131) ([3]; 5×10^5 CFU/mL) | MIC Staphylococcus aureus (GC 3051) ([3]; 5×10^5 CFU/mL) | MIC Staphylococcus aureus (GC 4541) ([3]; 5×10^5 CFU/mL) | MIC Staphylococcus aureus (GC 4542) ([3]; 5×10^5 CFU/mL) | MIC Staphylococcus aureus (GC 4544) ([3]; 5×10^5 CFU/mL) | MIC Staphylococcus aureus (GC 4545) ([3]; 5×10^5 CFU/mL) | MIC Staphylococcus aureus-SMITH (GC 4543) ([3]; 5×10^5 CFU/mL) | MIC Staphylococcus haemolyticus (GC 4546) ([3]; 5×10^5 CFU/mL) | MIC Staphylococcus aureus (ATCC 29213) ([3]; strain ATCC 29213) | MIC Staphylococcus aureus (GC 1131) ([3]; strain GC 1131) | MIC Staphylococcus aureus (GC 3051) ([3]; strain GC 3051) | MIC Staphylococcus aureus (GC 4541) ([3]; strain GC 4541) | MIC Staphylococcus aureus (GC 4542) ([3]; strain GC 4542) | MIC Staphylococcus aureus (GC 4544) ([3]; strain GC 4544) | MIC Staphylococcus aureus (GC 4545) ([3]; strain GC 4545) | MIC Streptococcus agalactiae (GC 4564) [4, 5] | MIC Streptococcus agalactiae (GC 4564) ([4]; strain GC 4564)
>64 µg/mL: MIC Enterococcus avium (GC 4558) [1, 5] | MIC Enterococcus faecalis (ATCC 29212) [1, 5] | MIC Enterococcus faecalis (GC 2242) [1, 5] | MIC Enterococcus faecalis (GC 2691) [1, 5] | MIC Enterococcus faecalis (GC 3059) [1, 5] | MIC Enterococcus faecalis (GC 4552) [1, 5] | MIC Enterococcus faecalis (GC 4553) [1, 5] | MIC Enterococcus faecalis (GC 4554) [1, 5] | MIC Enterococcus faecalis (GC 6189) [1, 5] | MIC Enterococcus faecium (GC 2243) [1, 5] | MIC Enterococcus faecium (GC 4556) [1, 5] | MIC Enterococcus faecalis (ATCC 29212) ([1]; strain ATCC 29212) | MIC Enterococcus faecalis (GC 2242) ([1]; strain GC 2242) | MIC Enterococcus faecium (GC 2243) ([1]; strain GC 2243) | MIC Enterococcus faecalis (GC 2691) ([1]; strain GC 2691) | MIC Enterococcus faecalis (GC 3059) ([1]; strain GC 3059) | MIC Enterococcus faecalis (GC 4552) ([1]; strain GC 4552) | MIC Enterococcus faecalis (GC 4553) ([1]; strain GC 4553) | MIC Enterococcus faecalis (GC 4554) ([1]; strain GC 4554) | MIC Enterococcus faecium (GC 4556) ([1]; strain GC 4556) | MIC Enterococcus avium (GC 4558) ([1]; strain GC 4558) | MIC Enterococcus faecalis (GC 6189) ([1]; strain GC 6189) | MIC Escherichia coli (ATCC 25922) ([2]; strain ATCC 25922) | MIC Escherichia coli (GC 4559) ([2]; strain GC 4559) | MIC Coagulase Negative Staphylococcus (GC 4551) ([3]; 5×10^5 CFU/mL) | MIC Staphylococcus aureus (GC 3053) ([3]; 5×10^5 CFU/mL) | MIC Staphylococcus aureus (GC 3053) ([3]; strain GC 3053)
8 µg/mL: MIC Escherichi coli (GC 4560) ([2]; strain GC 4560) | MIC Coagulase Negative Staphylococcus (GC 6257) ([3]; 5×10^5 CFU/mL) | MIC Streptococcus pneumoniae (ATCC 6301) [4, 5] | MIC Streptococcus pneumoniae (GC 1894) [4, 5] | MIC Streptococcus pneumoniae (GC 4565) [4, 5] | MIC Streptococcus pneumoniae (ATCC 6301) ([4]; strain ATCC 6301) | MIC Streptococcus pneumoniae (GC 1894) ([4]; strain GC 1894) | MIC Streptococcus pneumoniae (GC 4565) ([4]; strain GC 4565)
